Test results as given in ChEMBL document CHEMBL3576831, “Discovery of a Selective TRPM8 Antagonist with Clinical Efficacy in Cold-Related Pain” (ACS Med Chem Lett, 2015).
Activity calls are given as the source filed them. The calls are words filed in the database; no cut-off is given here.

Key:
[1] = Intrinsic clearance in human liver microsomes; format: ADME; details: read-out: CLH
CYP2C9 = CYP2C9 (Homo sapiens, UniProt P11712); test: Inhibition of CYP2C9 (unknown origin) at 3 uM; format: ADME
CYP2C9, sequence (P11712 whole entry): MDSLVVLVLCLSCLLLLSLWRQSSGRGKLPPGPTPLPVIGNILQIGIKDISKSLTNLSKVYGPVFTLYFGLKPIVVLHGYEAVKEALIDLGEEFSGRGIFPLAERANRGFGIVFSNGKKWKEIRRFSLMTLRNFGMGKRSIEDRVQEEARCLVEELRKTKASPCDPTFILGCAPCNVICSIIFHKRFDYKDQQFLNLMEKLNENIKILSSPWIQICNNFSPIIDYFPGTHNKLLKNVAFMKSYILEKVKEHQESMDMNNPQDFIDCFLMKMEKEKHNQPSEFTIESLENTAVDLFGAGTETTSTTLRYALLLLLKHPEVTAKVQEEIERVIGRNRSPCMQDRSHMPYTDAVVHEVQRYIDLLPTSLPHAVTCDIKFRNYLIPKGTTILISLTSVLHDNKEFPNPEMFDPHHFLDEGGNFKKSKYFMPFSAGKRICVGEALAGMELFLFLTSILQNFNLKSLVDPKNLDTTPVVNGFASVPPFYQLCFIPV

Hepatocyte = test: Intrinsic clearance in human hepatocytes assessed per million cells; format: ADME, cell-based
CYP3A4 = CYP3A4 (Homo sapiens, UniProt P08684); test: Inhibition of CYP3A4 (unknown origin) at 3 uM; format: ADME
CYP3A4, sequence (P08684 whole entry): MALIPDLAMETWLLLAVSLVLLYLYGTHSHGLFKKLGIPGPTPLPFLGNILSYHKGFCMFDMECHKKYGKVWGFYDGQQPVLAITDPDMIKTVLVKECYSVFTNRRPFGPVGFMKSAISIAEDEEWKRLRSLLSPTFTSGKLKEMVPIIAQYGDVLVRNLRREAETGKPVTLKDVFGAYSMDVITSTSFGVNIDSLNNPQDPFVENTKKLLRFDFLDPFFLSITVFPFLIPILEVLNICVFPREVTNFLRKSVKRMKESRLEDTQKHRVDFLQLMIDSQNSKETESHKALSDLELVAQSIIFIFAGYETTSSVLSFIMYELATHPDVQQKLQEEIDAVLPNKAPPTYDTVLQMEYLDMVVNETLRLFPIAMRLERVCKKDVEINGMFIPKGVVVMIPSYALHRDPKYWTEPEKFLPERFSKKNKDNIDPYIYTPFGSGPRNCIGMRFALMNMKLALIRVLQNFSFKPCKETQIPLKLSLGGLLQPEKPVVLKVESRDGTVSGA

CYP1A2 = target: T1, CYP1A2 (Homo sapiens, UniProt P05177); test: Inhibition of CYP1A2 (unknown origin) at 3 uM; format: ADME
T1 sequence (P05177 whole entry): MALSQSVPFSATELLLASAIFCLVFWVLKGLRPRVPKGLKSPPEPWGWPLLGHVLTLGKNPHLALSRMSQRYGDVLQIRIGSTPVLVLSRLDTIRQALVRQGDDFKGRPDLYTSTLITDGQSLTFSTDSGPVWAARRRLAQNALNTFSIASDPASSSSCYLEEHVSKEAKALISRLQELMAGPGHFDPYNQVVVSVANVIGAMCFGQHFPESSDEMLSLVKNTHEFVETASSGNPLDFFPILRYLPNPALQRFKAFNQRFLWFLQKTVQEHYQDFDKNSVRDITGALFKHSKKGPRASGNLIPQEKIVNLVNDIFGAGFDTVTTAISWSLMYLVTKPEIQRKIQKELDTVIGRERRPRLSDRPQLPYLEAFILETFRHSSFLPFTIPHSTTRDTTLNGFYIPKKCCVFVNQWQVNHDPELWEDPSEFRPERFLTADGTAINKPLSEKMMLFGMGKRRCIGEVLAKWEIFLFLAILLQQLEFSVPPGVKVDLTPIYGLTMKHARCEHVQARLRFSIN

[2] = target: T2, Transient receptor potential cation channel subfamily M member 8 (Homo sapiens, UniProt Q7Z2W7); test: Antagonist activity against human recombinant TRPM8 expressed in CHO T-rex cells assessed as inhibition of WS12-induced calcium response pre-incubated for 20 mins before WS12 addition; format: cell-based
T2 sequence (Q7Z2W7 whole entry): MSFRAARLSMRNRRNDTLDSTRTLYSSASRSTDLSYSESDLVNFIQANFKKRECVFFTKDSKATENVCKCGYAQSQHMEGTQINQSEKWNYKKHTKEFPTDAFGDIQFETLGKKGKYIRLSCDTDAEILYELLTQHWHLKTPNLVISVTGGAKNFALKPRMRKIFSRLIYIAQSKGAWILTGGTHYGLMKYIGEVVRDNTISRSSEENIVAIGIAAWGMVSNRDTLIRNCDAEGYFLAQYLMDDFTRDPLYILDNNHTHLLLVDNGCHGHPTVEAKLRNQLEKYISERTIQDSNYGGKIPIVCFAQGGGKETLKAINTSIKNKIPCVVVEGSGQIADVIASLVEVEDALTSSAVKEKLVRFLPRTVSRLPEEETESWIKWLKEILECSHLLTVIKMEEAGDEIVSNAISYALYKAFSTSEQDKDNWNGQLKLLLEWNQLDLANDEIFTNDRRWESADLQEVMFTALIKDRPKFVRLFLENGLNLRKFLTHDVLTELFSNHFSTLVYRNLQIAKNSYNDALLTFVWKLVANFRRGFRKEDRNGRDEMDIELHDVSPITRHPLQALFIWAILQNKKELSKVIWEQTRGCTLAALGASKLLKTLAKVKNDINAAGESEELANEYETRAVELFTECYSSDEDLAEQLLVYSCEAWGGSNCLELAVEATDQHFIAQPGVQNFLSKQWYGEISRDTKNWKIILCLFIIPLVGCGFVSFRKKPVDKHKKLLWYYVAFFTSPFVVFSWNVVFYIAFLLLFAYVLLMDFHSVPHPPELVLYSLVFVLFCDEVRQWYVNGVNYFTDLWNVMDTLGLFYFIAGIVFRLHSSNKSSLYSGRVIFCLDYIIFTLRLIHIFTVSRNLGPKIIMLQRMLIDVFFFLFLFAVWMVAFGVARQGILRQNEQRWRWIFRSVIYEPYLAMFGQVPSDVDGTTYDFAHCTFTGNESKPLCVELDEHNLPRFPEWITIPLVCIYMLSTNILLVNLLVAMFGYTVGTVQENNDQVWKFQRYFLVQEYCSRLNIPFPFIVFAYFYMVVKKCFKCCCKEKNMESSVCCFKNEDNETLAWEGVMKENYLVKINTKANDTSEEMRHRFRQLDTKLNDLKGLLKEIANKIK

[3] = Lipophilicity, log D of the compound; format: physicochemical; details: octanol/water
Liver microsome = test: Intrinsic clearance in rat liver microsomes; format: ADME
CYP2C8 = target: T3, CYP2C8 (Homo sapiens, UniProt P10632); test: Inhibition of CYP2C8 (unknown origin) at 3 uM; format: ADME
T3 sequence (P10632 whole entry): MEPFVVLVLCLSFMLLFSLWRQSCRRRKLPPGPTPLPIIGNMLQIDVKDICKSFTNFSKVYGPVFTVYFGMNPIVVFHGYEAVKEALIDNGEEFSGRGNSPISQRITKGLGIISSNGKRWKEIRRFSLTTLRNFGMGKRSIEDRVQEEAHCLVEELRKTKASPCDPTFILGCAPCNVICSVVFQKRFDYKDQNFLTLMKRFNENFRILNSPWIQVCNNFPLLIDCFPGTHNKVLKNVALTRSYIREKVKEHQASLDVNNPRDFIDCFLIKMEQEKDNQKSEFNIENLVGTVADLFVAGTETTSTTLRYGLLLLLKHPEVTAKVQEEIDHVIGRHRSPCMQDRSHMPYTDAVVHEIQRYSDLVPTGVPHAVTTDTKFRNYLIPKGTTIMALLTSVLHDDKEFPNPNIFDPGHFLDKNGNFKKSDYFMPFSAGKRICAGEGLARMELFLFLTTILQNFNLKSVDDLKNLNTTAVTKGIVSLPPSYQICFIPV

CYP2D6 = CYP2D6 (Homo sapiens, UniProt P10635); test: Inhibition of CYP2D6 (unknown origin) at 3 uM; format: ADME
CYP2D6, sequence (P10635 whole entry): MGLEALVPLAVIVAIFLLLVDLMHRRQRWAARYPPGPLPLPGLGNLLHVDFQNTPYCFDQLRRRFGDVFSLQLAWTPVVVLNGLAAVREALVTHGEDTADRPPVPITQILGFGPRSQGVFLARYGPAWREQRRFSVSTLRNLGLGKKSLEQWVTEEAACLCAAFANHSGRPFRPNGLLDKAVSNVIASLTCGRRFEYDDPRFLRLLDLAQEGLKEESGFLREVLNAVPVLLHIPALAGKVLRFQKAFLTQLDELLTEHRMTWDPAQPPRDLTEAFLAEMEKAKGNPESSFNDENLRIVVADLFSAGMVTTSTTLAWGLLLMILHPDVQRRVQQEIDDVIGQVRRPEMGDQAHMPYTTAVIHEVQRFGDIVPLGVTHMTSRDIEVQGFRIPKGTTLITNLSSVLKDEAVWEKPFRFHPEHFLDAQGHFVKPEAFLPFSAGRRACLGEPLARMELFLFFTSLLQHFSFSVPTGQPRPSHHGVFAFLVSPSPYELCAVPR

[4] = target: T4, Voltage-gated inwardly rectifying potassium channel KCNH2 (Homo sapiens, UniProt Q12809); test: Inhibition of dofetilide binding to human ERG
T4 sequence (Q12809 whole entry): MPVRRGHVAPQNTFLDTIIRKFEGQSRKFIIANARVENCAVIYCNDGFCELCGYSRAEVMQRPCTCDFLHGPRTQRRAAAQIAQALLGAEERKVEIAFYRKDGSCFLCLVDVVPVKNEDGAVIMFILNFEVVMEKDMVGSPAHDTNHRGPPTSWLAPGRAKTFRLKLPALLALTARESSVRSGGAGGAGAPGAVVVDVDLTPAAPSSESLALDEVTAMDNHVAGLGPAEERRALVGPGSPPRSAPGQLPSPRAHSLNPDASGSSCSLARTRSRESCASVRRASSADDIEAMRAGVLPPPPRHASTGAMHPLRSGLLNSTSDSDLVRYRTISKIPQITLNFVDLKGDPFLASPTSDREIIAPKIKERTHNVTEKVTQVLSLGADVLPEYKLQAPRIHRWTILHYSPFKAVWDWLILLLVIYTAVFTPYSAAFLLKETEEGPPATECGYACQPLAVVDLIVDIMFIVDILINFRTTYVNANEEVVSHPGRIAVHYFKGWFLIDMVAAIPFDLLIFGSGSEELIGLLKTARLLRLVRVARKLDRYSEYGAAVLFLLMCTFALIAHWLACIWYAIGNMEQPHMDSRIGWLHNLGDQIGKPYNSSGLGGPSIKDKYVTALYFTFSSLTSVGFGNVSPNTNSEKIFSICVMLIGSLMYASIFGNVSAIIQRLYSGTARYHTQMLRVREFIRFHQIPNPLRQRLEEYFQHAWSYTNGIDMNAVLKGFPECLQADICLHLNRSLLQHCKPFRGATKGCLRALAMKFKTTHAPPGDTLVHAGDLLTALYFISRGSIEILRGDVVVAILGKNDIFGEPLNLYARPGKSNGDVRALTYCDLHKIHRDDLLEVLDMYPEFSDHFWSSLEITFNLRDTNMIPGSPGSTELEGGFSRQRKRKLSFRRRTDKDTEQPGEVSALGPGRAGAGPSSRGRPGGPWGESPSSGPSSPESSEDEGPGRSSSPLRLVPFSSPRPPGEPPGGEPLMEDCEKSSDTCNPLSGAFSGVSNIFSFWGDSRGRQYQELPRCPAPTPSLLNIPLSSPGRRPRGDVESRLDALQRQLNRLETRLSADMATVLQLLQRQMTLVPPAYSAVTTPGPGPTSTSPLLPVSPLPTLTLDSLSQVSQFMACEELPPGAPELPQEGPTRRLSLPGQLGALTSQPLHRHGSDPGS

Homo sapiens [5] = test: Analgesic effect in human at 900 mg administered as single dose by cold pressor test; format: functional, organism-based
Rattus norvegicus [6] = organism: Rattus norvegicus; test: Unbound clearance in rat; format: ADME, organism-based; details: in vivo
[7] = Fraction unbound in human plasma; format: ADME, cell-free
Homo sapiens [8] = organism: Homo sapiens; test: Selectivity for human TRPM8 over TRPA1 (unknown origin)
Canis familiaris = test: Unbound clearance in beagle dog at 0.2 mg/kg, iv; format: ADME, organism-based, Canis lupus familiaris; details: in vivo
[9] = Volume of distribution at steady state in beagle dog at 0.2 mg/kg, iv; format: ADME, organism-based, Canis lupus familiaris; details: in vivo, read-out: Vdss
[10] = Oral bioavailability in beagle dog at 20 mg/kg; format: ADME, organism-based, Canis lupus familiaris; details: in vivo
[11] = target: T2, Transient receptor potential cation channel subfamily M member 8; test: Antagonist activity against human TRPM8 by single cell patch clamp electrophysiology
[12] = Oral absorption in beagle dog at 20 mg/kg; format: ADME, organism-based, Canis lupus familiaris; details: in vivo
[13] = Fraction unbound in rat plasma; format: ADME, cell-free
[14] = Volume of distribution at steady state in rat; format: ADME, organism-based; details: in vivo, read-out: Vdss
Homo sapiens [15] = organism: Homo sapiens; test: Selectivity for human TRPM8 over TRPV1 (unknown origin)
Homo sapiens [16] = test: Toxicity in human assessed as induction of nontolerated hot sensation localized to mouth, face, upper body, arms and hands at 900 mg administered as single dose during cold pressor test; format: organism-based; details: in vivo
[17] = Clearance in rat; format: ADME, organism-based; details: in vivo
[18] = Half life in beagle dog at 0.2 mg/kg, iv; format: ADME, organism-based, Canis lupus familiaris; details: in vivo
[19] = Oral absorption in rat at 2 mg/kg; format: ADME, organism-based; details: in vivo
[20] = Oral bioavailability in rat at 2 mg/kg; format: ADME, organism-based; details: in vivo
[21] = Oral absorption in rat at 10 mg/kg; format: ADME, organism-based; details: in vivo
[22] = Half life in rat; format: ADME, organism-based; details: in vivo
[23] = Fraction unbound in guinea pig plasma; format: ADME, cell-free, Cavia porcellus
Homo sapiens [24] = test: Toxicity in human assessed as effect on core body temperature up to 900 mg administered as single dose during cold pressor test; format: organism-based; details: in vivo
[25] = Clearance in beagle dog at 0.2 mg/kg, iv; format: ADME, organism-based, Canis lupus familiaris; details: in vivo
Cavia porcellus = organism: Cavia porcellus; test: Analgesic effect in guinea pig model of cold-induced bladder contractility assessed as maximum unbound concentration to causing therapeutic efficacy; format: functional
[26] = Fraction unbound in dog plasma; format: ADME, cell-free, Canis lupus familiaris
[27] = Efflux ratio in MDCK cells; format: ADME, cell-based, Canis lupus familiaris; details: dog
[28] = target: T4, Voltage-gated inwardly rectifying potassium channel KCNH2; test: Inhibition of human ERG
[29] = Permeability in RRCK cells; format: ADME, cell-based, Canis lupus familiaris, MDCKII-LE; details: dog, MDCK; read-out: permeability
Rattus norvegicus [30] = organism: Rattus norvegicus; test: Drug metabolism in bile-duct cannulated rat assessed as formation of acyl glucuronide formation; format: ADME, organism-based; details: in vivo
[31] = Oral bioavailability in rat at 10 mg/kg; format: ADME, organism-based; details: in vivo

`CC[C@H](c1ccc(F)cc1F)N(Cc1cccc(C(=O)O)c1)C(=O)c1cc2ccccn2n1` gave a microsomal CLint [1] of 28 µL/min/mg, an inhibition at 3 µM (CYP2C9) of 0% and a hepatocyte intrinsic clearance (Hepatocyte) of 48 µL/min/million cells. The inhibition at 3 µM (CYP3A4) was 0%, the inhibition at 3 µM (CYP1A2) was 0% and the IC50 [2] was 123 nM. For the same compound, the logD [3] was 1.2, the microsomal CLint (Liver microsome) was 41 µL/min/mg and the inhibition at 3 µM (CYP2C8) was 0%. The inhibition at 3 µM (CYP2D6) was 0%.

`C[C@H](c1ccc(F)cc1)N(Cc1cccc(C(=O)O)c1)C(=O)c1cc2ccccc2nn1` showed a microsomal CLint [1] of less than 8 µL/min/mg, an IC50 [2] of 340 nM and a microsomal CLint (Liver microsome) of 76 µL/min/mg.

With `C[C@H](c1ccc(F)cc1)N(Cc1cccc(C(=O)O)c1)C(=O)c1cn2ccccc2n1` the Ki [4] was greater than 9180 nM, the IC50 [2] was 307 nM and the logD [3] was 0.6. For the same compound, the microsomal CLint (Liver microsome) was 113 µL/min/mg.

Work on `O=C(O)c1cccc(CN(C(=O)c2cnc3ccccc3c2)[C@H](CO)c2ccccc2)c1` yielded an IC50 [2] greater than 6860 nM.

For `C[C@H](c1ccc(F)cc1)N(Cc1cccc(C(=O)O)c1)C(=O)c1cccc(-c2ccccc2)c1`, the IC50 [2] was 837 nM.

In the case of `C[C@H](c1ccc(F)cc1)N(Cc1cccc(C(=O)O)c1)C(=O)c1cnc2ccccc2c1` [PF-05105679], the Activity (Homo sapiens [5]) is reported as “Active”, the CL free (Rattus norvegicus [6]) is reported as 618 mL/min/kg and the fraction unbound [7] is reported as 0.012. It also gave a Selectivity ratio (Homo sapiens [8]) greater than 100, a microsomal CLint [1] of less than 8 µL/min/mg and a CL free (Canis familiaris) of 462 mL/min/kg. It also gave an inhibition at 3 µM (CYP2C9) of 0%, a Vd [9] of 7.4 L/kg and a bioavailability [10] of 92%. For the same compound, the IC50 [11] was 103 nM, the Fa [12] was 100% and the fraction unbound [13] was 0.033. For the same compound, the Vd [14] was 6.2 L/kg, the Selectivity ratio (Homo sapiens [15]) was greater than 100 and the Activity (Homo sapiens [16]) was “Toxic”. The clearance [17] was 19.8 mL/min/kg, the half-life [18] was 3.9 h and the Fa [19] was 46%. The hepatocyte intrinsic clearance (Hepatocyte) was less than 15 µL/min/million cells, the bioavailability [20] was 29% and the Fa [21] was 100%. For the same compound, the inhibition at 3 µM (CYP3A4) was 0%, the half-life [22] was 3.6 h and the fraction unbound [23] was 0.07. The inhibition at 3 µM (CYP1A2) was 0%, the Activity (Homo sapiens [24]) was “Non-toxic” and the clearance [25] was 31 mL/min/kg. It also gave a fCmax (Cavia porcellus) of 254 nM, a fraction unbound [26] of 0.067 and an efflux ratio [27] of 4.8. It also gave an IC50 [28] greater than 30000 nM, a Papp [29] of 6.8 ×10⁻⁶ cm/s and a Ki [4] greater than 15900 nM. The IC50 [2] was 181 nM, the logD [3] was 1 and the microsomal CLint (Liver microsome) was 17 µL/min/mg. The inhibition at 3 µM (CYP2C8) was 0%, the inhibition at 3 µM (CYP2D6) was 0% and the Drug metabolism (Rattus norvegicus [30]) was “metabolite_detected”. For the same compound, the bioavailability [31] was 62%.

`C[C@H](c1ccc(F)cc1)N(Cc1cccc(C(=O)O)c1)C(=O)c1cc2ccccc2cn1` gave a microsomal CLint [1] of 16 µL/min/mg, a hepatocyte intrinsic clearance (Hepatocyte) of 21 µL/min/million cells and a Ki [4] greater than 9180 nM. For the same compound, the IC50 [2] was 90 nM, the logD [3] was 1.1 and the microsomal CLint (Liver microsome) was 166 µL/min/mg.

In the case of `CC[C@H](c1ccc(C)o1)N(Cc1cccc(C(=O)O)c1)C(=O)c1cnc2ccccc2c1`, the IC50 [2] is reported as 328 nM.

With `C[C@H](c1ccc(F)cc1)N(Cc1cccc(C(=O)O)c1)C(=O)Cc1cccc(Cl)c1` the IC50 [2] was greater than 10000 nM.

`C[C@H](c1ccc(F)cc1)N(Cc1cccc(C(=O)O)c1)C(=O)c1cc2ccccn2n1` showed a microsomal CLint [1] of 42 µL/min/mg, a hepatocyte intrinsic clearance (Hepatocyte) of 23 µL/min/million cells and a Ki [4] greater than 9180 nM. The IC50 [2] was 94 nM, the logD [3] was 0.9 and the microsomal CLint (Liver microsome) was 325 µL/min/mg.

With `CC(C)(c1ccc(F)cc1)N(Cc1cccc(C(=O)O)c1)C(=O)c1cnc2ccccc2c1` the IC50 [2] was greater than 10000 nM.

In the case of `CC[C@H](c1ccc(F)cc1)N(Cc1cccc(C(=O)O)c1)C(=O)c1cnc2ccccc2c1`, the microsomal CLint [1] is reported as less than 8 µL/min/mg, the hepatocyte intrinsic clearance (Hepatocyte) is reported as 28 µL/min/million cells and the Ki [4] is reported as greater than 15200 nM. For the same compound, the IC50 [2] was 202 nM, the logD [3] was 1.3 and the microsomal CLint (Liver microsome) was less than 14 µL/min/mg.

`C[C@H](c1ccc(F)cc1)N(Cc1cccc(-c2nn[nH]n2)c1)C(=O)c1cnc2ccccc2c1` showed an IC50 [2] of 1610 nM.

Compound `C[C@H](c1ccc(F)cc1)N(Cc1ccc(F)c(C(=O)O)c1)C(=O)c1cnc2ccccc2c1` has an IC50 [2] of 3280 nM.

`C[C@H](c1ccc(F)cc1)N(Cc1cccc(C(=O)O)c1)C(=O)c1ccc(Oc2ccccc2)cc1` gave an IC50 [2] greater than 6170 nM.
